From patent US4863748A, “Dietary products and uses comprising methylsulfonylmethane” (priority 1986, dated 1989)

Columns and labels:
[1] = Tolerance of intravenous infusion; format: in vivo, human patients; conditions: for side effect at infusion rate as high as 2 gm/kg/hr: i.v., some patients
Description: The amount of methylsulfonylmethane intravenously administered can vary substantially because of its lack of toxicity and adverse side effects. Individual doses can vary from about 0.01 to 2 gm/kg, preferably from about 0.1 to 1 gm/kg, on a body weight basis, the usual dosage range is about 0.25 to 0.75 gm/kg, preferably about 0.5 gm/kg.
When large amounts are administered, e.g., in the order of 1 g/kg of body weight or more, i.e., infusion of 5% to 10% solution of methylsulfonylmethane in water, physiological saline or 5% dextrose is preferred. The rate of administration is preferably no greater than about 1 gm/kg/hr, although infusion rates as high as 2 gm/kg/hr are tolerated by patients, except for light-headedness of the type experienced by some blood donors is experienced by some patients at this rate.
Such massive i.v. administrations can be repeated as frequently as every 24 hours.

mucous membranes = test: Binding of labeled 35-S dimethyl sulfone to mucous membranes by autoradiography; conditions: 35-S labeled
Text: 1. Reducing the adverse response to inhalant allergens. This action may be due entirely or in part to a physical blocking action. Labeled 35-S dimethyl sulfone binds tightly to the surface of mucous membranes and by autoradiography, the membranes appears to be coated, as with a paint.

arthritic patients = test: Chemical profile of arthritic patients; format: in vivo, human; conditions: drop from 600+
Text: 8. Improving the chemical profile of arthritic patients, e.g., providing relief from pain and stiffness, reduced swelling and inflammation, coupled with a return of blood chemistry towards normalcy, for example, a RH titer drop from 600+to 300 or lower.

nail growth = test: Nail growth in dogs (Example 6); format: in vivo, dog (female labradors); conditions: 5% in drinking water, 45 days
Text: Rate of nail growth is an indication of the overall health of an animal. To determine the effect of methylsulfonylmethane on nail growth, two litter mate female labradors, age 8.5 months, were maintained in side by side straw bedded cages. Before any testing, the front paws of each dog were embedded in partially set plaster of paris, allowing the animals to exert full body weight, thereby obtaining good clear impressions of paw pads and nail length.
Each dog was fed Purina dog chow and water ad lib for 45 days. One of the dogs, (Animal A) had no ration change and the other (Animal B) was supplied only with water containing 5% of methylsulfonylmethane dissolved therein. After 45 days, plaster impressions of the front paws of each dog were again taken. Once the plaster had fully hardened the pre- and post-testing castings of each animal were compared. The straw bedding protected both animals from normal nail wear. On visual examination, the nails of Animal B, the animal receiving methylsulfonylmethane in its water, were obviously longer. Upon comparing the castings it was seen that Animal B had nails that averaged about 1/8 inch greater length than those of Animal A.

coat = test: Coat quality of guinea pigs (Example 8); format: in vivo; conditions: 2 wt. % in water, 28 days
Text: Ten 4-week old guinea pigs were housed in individual metal cages in a standard temperature room with a 12-hour light/dark cycle and acclimated over a 5-day period of feeding Purina guinea pig chow with water ad lib.
On day six, five animals were marked on the belly with red and the other five with blue water-insoluble ink. The marks were not visible when the animals were observed from above. Each animal after marking was returned to its cage and a corresponding red or blue tape affixed to the animal's watering bottle. The red marked bottles were maintained with tap water and the blue marked bottles were filled with tap water containing 2 wt. % methylsulfonylmethane. During a 28 day period, the animals were fed and allowed access to their water or water+2% methylsulfonylmethane, respectively, ad lib. On day 28, the animals were placed in common confinement on a well lighted table. Four individuals, totally unfamiliar with the test and its purpose were asked to evaluate the coat of each animal. Animals at each evaluation were removed by the evaluator and placed into one of two groups based on better or poorer quality of the animal's coat without seeing the color on the animal's belly.

[2] = Pin worm (Enterobius) infection in laboratory mice (Examples 19 and 28(c)); format: in vivo; conditions: mouse, blood, po; one animal examined; 2% by wt. in feed and drinking water; read-out: blood level of methylsulfonylmethane
Text: (§1) Laboratory mice determined by fecal cast examination to have pin worms were given commercial feed and drinking water, ad lib, both of which contained 2% by wt. methylsulfonylmethane. […] The blood level of methylsulfonylmethane in one animal examined exceeded 30 ppm.
(§2) Laboratory mice determined by fecal cast examination to have pin worms were given 2% by wt. of methylsulfonylmethane in both their commercial feed and drinking water, ad lib.

Enterobius (pin worms) = test: as above; format: in vivo; conditions: 2% by wt. in feed and drinking water
Text: as §1, §2

platelet count = test: Low platelet count in lupus erythematosus (Example 22); format: in vivo, human; conditions: 1.5 gm/day in 3 doses, 2-year period
Text: Methylsulfonylmethane administered orally raised the platelet count of an adult with lupus erythematosus from 84,000 (after prednisone therapy) to 200,000 over a 2-year period (1.5 gm/day in 3 doses).

[3] = test system: physical fatigue syndrome; test: Post-athletic activity fatigue (Example 25); format: in vivo, human; conditions: 1-2 gm/day, preceding six months; usually 8-10 days
Text: The physical fatigue syndrome following intense athletic activity in competitive sports which usually persists for 8-10 days in athletes was gone in 2-3 days in individuals who had ingested methylsulfonylmethane (from 1-2 gm/day in split dosages) for the preceding six months.

[4] = test system: pain in the mid-back region; test: Acute pain, comparison with codeine, urinary calculi, subject three (Example 32); format: in vivo, human; conditions: 1.5 g in warm water, oral
Description: Methylsulfonylmethane was compared with codeine for the control of pain in subject three, a person who awakened in the early morning with excruciating pain in the mid-back region, so intense it was difficult to pin-point a specific region. […] Analgesic requirements were 1/2 grain codeine with aspirin every two hours. […] The intense pain returned. The subject was given 1.5 g of methylsulfonylmethane dissolved in 1/2 glass of warm water. At 0.5 hours after taking the methylsulfonylmethane, the pain had essentially disappeared. Methylsulfonylmethane (1.5 g/day) was continued until the afternoon of the third day, when X-ray confirmed that the calculi yet obstructed the ureter. Subject was switched again to codeine with aspirin (1/2 grain×2 hours). […] Methylsulfonylmethane was again administered (1.5 g×4 hours). On day 5 the calculi passed. Recovery was uneventful, requiring neither codeine, methylsulfonylmethane,nor a urinary tract antimicrobial.

mammary carcinoma = test: Resistance to DMBA-induced mammary carcinoma (Example 36); format: in vivo, female rats; conditions: 2% by wt. in diet; Group 3; Group 2 (DMBA only) had cancers
Description: Forty-five female rats were stabilized to the laboratory and then divided into 3 groups of 15 each. Group 1 was designated control, Groups 2 and 3 were treated by topical application to the hair-free abdomen with a solution of the carcinogen dimethyl-benzanthracene (DMBA). All three groups were each fed a standard laboratory diet with water, ad lib. Group 3 also received in […] their standard diet 2% by wt. of methylsulfonylmethane.

anticholinesterases = conditions: in vivo; cited from earlier work

In the case of `CS(C)(=O)=O` [methylsulfonylmethane], the tolerated infusion rate ([1]; i.v. infusion) is reported as ≤ 2 gm/kg/hr, the “side effect at infusion rate as high as 2 gm/kg/hr” value [1] is reported as “light-headedness” and the “side effect at infusion rate as high as 2 gm/kg/hr” value ([1]; listed as dimethylsulfone) is reported as “transient light-headedness”. The “binding to the surface of mucous membranes” value (mucous membranes) was “binds tightly”, the RH titer (arthritic patients) was ≤ 300 and the “greater average nail length vs Animal A” value (nail growth) was “about 1/8”. The “animals with blue belly mark selected as superior by fourth evaluator” value (coat) was “three”, the “evaluators selecting the five treated animals as having superior coats” value (coat) was “Three of the four evaluators” and the concentration at 408 h [2] was > 30000 ng/mL. The “worms and eggs in fecal cast after 17 days” value (Enterobius (pin worms)) was “free of worms and eggs”, the platelet count (platelet count) was 200,000 and the “duration of physical fatigue syndrome” value [3] was 2 to 3 days. For the same compound, the “time after which the pain had essentially disappeared” value [4] was 0.5 h, the “mammary carcinoma at 5 months post DMBA” value (mammary carcinoma) was “free of mammary carcinoma” and the “lethal effects of anticholinesterases such as paraoxon, tetraethyl pyrophosphate and octamethyl pyrophosphoramide” value (anticholinesterases) was “antagonizes”.
